Drawing on ChEMBL document CHEMBL1152068, “A study of 3-amino-N-hydroxypropanesulfonamide derivatives as potential GABAB agonists and their fragmentation to 3-aminopropanesulfinic acid” (Bioorg Med Chem Lett, 1996), this text covers IC50 and inhibition in vivo for 7 molecules.

As a reminder, the IC50 is the concentration that gives 50% inhibition. A higher IC50 goes with a need for much substance. As usually defined, the inhibition in vivo is the relative decrease from the control value, in per cent. The low end stands for little suppression, the high end for strong suppression.

Test [1] deals with GABA B receptor (Rattus norvegicus, UniProt O88871+Q9Z0U4). In words: Binding affinity against Gamma-aminobutyric acid type B receptor in rat brain synaptosomes after 30 minutes. It counts as subcellular.
Sequence of GABA B receptor (Q9Z0U4 whole entry): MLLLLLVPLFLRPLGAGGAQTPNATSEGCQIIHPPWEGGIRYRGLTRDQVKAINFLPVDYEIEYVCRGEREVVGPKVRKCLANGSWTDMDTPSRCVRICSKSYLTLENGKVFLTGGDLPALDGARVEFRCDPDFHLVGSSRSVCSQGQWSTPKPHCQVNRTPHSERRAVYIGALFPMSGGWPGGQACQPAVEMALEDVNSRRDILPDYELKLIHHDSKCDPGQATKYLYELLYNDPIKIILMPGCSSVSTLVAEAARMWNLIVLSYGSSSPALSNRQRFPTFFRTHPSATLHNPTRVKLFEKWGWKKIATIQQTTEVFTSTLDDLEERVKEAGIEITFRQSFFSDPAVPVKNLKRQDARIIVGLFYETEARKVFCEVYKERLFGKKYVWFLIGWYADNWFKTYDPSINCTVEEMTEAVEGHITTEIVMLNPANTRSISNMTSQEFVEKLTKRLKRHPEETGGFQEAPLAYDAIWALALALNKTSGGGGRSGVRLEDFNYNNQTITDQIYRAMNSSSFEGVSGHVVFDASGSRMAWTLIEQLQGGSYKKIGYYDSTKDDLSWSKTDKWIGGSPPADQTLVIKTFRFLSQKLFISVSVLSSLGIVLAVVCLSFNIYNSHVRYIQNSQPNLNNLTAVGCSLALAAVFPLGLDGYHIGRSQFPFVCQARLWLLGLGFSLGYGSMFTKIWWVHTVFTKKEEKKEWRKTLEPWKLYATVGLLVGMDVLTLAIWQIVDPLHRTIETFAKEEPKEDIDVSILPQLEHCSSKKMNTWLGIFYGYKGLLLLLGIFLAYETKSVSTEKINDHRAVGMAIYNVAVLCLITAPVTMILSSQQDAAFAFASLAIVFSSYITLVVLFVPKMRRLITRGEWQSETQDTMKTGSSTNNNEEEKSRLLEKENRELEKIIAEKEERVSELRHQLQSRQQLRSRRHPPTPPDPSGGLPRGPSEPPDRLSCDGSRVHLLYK
Sequence of GABA B receptor (O88871 whole entry): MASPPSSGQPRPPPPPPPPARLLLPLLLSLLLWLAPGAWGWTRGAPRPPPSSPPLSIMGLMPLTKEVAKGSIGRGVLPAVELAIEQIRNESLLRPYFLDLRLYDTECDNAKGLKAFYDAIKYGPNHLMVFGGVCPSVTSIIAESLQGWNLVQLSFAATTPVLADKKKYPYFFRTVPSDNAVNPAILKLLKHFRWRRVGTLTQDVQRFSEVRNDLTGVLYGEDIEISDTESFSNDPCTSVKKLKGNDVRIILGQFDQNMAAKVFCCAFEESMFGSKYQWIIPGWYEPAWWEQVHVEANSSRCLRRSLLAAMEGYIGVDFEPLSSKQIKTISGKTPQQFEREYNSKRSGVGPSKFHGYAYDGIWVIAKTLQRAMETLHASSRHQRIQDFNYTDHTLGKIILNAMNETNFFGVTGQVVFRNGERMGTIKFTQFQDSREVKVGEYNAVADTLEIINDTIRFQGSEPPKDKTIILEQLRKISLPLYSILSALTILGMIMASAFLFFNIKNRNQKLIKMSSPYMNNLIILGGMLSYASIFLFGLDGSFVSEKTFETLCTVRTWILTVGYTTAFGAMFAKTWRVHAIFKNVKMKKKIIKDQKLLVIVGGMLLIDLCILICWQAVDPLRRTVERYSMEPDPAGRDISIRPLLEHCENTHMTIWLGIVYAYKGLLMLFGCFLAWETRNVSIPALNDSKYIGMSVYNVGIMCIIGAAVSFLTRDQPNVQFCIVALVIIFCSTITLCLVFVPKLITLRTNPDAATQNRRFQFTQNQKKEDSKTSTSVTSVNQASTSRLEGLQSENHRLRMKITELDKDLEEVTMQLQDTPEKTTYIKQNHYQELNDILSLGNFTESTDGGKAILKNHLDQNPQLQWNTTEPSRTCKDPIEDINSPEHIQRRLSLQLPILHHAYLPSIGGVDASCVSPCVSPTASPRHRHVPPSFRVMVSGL
Test [2] concerns the target GABA-A receptor; anion channel. The test is described as follows: Binding affinity against Gamma-aminobutyric acid A receptor in rat brain synaptosomes after 30 minutes. The format is subcellular.
Test [3] relates to Cavia porcellus. In words: Inhibitory effect on bronchospasm caused by vagal nerve stimulation (EFS) in anesthetized, mechanically ventilated guinea-pigs at 3 mg/kg after 10 minutes. It counts as functional. As to conditions: Bronchiole; call rule not given here.
The species named for test [4] is Cavia porcellus. In words: Compound was tested for its effect on EFS stimulated neuronal cholinergic contractions of guinea pig tracheal rings after 10 minutes. It counts as functional. Conditions: Trachea.
Test [5] deals with GABA-A receptor; anion channel. In words: Binding affinity against Gamma-aminobutyric acid A receptor in rat brain synaptosomes after 30 minutes (inactive). The format is subcellular.

As for `NCCCS(=O)(=O)N(O)CC(=O)O`, the IC50 turned out to be 80 nM in test [1] and 620 nM in test [2].
With `NCCCS(=O)(=O)NO`, the half-maximal inhibitory concentration (IC50) was 280 nM in test [1], 2000 nM in test [2] and 16000 nM in test [4]. The molecule also returned an inhibition in vivo at 3 mg/kg in test [3] of 0%.
As for `NCCCS(=O)(=O)N(O)Cc1ccccc1`, the IC50 in test [1] was 40 nM; in test [2], 230 nM; in test [4], 4200 nM. For the same molecule, the inhibition in vivo at 3 mg/kg in test [3] is 17%.
The corresponding values for `CN(O)S(=O)(=O)CCCN` are 40 nM, 280 nM, 2600 nM and 17%.
For `NCC(CC(=O)O)c1ccc(Cl)cc1` (racemic) [BACLOFEN], the half-inhibitory concentration (IC50) result in test [5] is “Not Active”; in test [4] it was 6400 nM. Also, at 3 mg/kg the inhibition in vivo in test [3] was 75%.
As to `NCCCS(=O)O` [HOMOHYPOTAURINE], the IC50 in test [1] was 60 nM; in test [2] it was 470 nM; in test [4], 1700 nM. In addition, in test [3], the inhibition in vivo at 3 mg/kg is 25%.
Consider `NCCCS(=O)(=O)O` [TRAMIPROSATE], for which the figures for the IC50 in test [1] and in test [2] were 30000 nM and 300 nM, respectively.
